From patent US20260258035A1, “FIVE-MEMBERED AND SIX-MEMBERED NITROGEN-CONTAINING COMPOUND, AND INTERMEDIATE, PREPARATION METHOD AND USE THEREOF” (HANGZHOU SYNRX THERAPEUTICS BIOMEDICAL TECHNOLOGY CO., LTD., priority 2022, published 2026)
Read-outs that look alike come from different tables or passages of the source.

Experiments:
HCC1806 = assay: Cell viability assay (CellTiter-Glo); format: cell-based, Human; settings: HCC1806, 7 days, CellTiter-Glo, read-out: IC50 (nM) in cell viability assay
PARG = PARG (Homo sapiens, UniProt Q86W56); assay: Biochemical assay (PARG, TFMU-ADPr substrate)
[1] = 4 nM PARG, 66.2 uM TFMU-ADPr, 3 min at room temperature

Chain of PARG (Q86W56 whole entry): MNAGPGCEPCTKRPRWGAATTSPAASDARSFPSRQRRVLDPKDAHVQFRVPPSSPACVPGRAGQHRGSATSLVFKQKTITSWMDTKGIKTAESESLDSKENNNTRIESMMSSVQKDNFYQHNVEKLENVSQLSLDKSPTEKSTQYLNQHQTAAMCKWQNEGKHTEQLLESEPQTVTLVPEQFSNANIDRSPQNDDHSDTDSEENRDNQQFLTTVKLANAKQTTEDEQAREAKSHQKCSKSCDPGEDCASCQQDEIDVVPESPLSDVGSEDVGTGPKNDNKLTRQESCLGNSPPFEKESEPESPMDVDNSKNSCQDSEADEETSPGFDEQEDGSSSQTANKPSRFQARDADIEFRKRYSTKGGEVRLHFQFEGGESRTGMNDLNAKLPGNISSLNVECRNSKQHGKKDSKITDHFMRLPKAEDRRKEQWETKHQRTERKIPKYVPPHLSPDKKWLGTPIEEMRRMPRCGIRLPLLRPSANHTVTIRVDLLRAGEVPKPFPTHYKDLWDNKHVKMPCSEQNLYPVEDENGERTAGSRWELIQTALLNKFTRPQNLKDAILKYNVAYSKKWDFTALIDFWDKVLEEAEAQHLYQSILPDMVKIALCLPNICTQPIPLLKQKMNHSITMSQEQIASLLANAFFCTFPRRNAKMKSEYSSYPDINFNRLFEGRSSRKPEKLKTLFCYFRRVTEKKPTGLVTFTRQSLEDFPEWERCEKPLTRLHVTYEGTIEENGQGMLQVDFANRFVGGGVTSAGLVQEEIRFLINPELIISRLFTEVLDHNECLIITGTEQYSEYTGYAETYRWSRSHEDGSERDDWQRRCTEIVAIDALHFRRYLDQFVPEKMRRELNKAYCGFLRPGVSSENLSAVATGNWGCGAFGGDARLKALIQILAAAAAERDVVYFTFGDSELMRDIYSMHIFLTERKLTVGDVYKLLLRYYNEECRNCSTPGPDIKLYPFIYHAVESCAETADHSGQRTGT

**Q.** `Cc1nc(-c2nnc(C(F)(F)F)s2)n2cc(S(=O)(=O)NC3(C#N)CC3)cc(N3CCN(C(=O)C4CCO4)CC3)c12` (centres unmarked) [Example 172, N-(1-cyanocyclopropyl)-1-methyl-8-(4-(oxetane-2-carbonyl)piperazin-1-yl)-3-(5-(trifluoromethyl)-1,3,4-thiadiazol-2-yl)imidazo[1,5-a]pyridine-6-sulfonamide] was tested. Which IC50 (HCC1806; Homo sapiens, HCC1806, 168 h) did it give?
**A.** 308 nM

**Q.** And the IC50 (PARG; PARG, TFMU-ADPr substrate)?
**A.** 10 nM

**Q.** What does the source list for `CC(=O)N1CC=C(c2cc(S(=O)(=O)NC3(C#N)CC3)cn3c(-c4nnc(C(F)(F)F)s4)ncc23)CC1` [Example 370, 8-(1-acetyl-1,2,3,6-tetrahydropyridin-4-yl)-N-(1-cyanocyclopropyl)-3-(5-(trifluoromethyl)-1,3,4-thiadiazol-2-yl)imidazo[1,5-a]pyridine-6-sulfonamide]?
**A.** IC50 (HCC1806; Homo sapiens, HCC1806, 168 h): 240 nM; IC50 (PARG; PARG, TFMU-ADPr substrate): 41.7 nM

**Q.** For `CC1(NS(=O)(=O)c2cc(N3CCN[C@H](CF)C3)c3cnc(-c4nnc(C(F)F)s4)n3c2)COC1` [Example 191, (S)-3-(5-(difluoromethyl)-1,3,4-thiadiazol-2-yl)-8-(3-(fluoromethyl)piperazin-1-yl)-N-(3-methyloxetan-3-yl)imidazo[1,5-a]pyridine-6-sulfonamide], which IC50 (HCC1806; Homo sapiens, HCC1806, 168 h) is on record?
**A.** 723 nM

**Q.** And the IC50 (PARG; PARG, TFMU-ADPr substrate)?
**A.** 32 nM

**Q.** For `COC1(C(=O)N2CCN(c3cc(S(=O)(=O)NC4(C#N)CC4)cn4c(-c5nnc(C(F)F)s5)ncc34)CC2)CNC1` [Example 289, N-(1-cyanocyclopropyl)-3-(5-(difluoromethyl)-1,3,4-thiadiazol-2-yl)-8-(4-(3-methoxyazetidine-3-carbonyl)piperazin-1-yl)imidazo[1,5-a]pyridine-6-sulfonamide], which IC50 (HCC1806; Homo sapiens, HCC1806, 168 h) is on record?
**A.** 6150 nM

**Q.** What about the IC50 (PARG; PARG, TFMU-ADPr substrate) of the same molecule?
**A.** 1.51 nM

**Q.** For `CC(C)C(=O)N1CCN(c2cc(S(=O)(=O)NC3(C)CN(C)C3)cn3c(-c4nnc(C(F)F)s4)ncc23)CC1` [Example 51, 3-(5-(difluoromethyl)-1,3,4-thiadiazol-2-yl)-N-(1,3-dimethylazetidin-3-yl)-8-(4-isobutyrylpiperazin-1-yl)imidazo[1,5-a]pyridine-6-sulfonamide], which IC50 (HCC1806; Homo sapiens, HCC1806, 168 h) is on record?
**A.** > 30000 nM

**Q.** What about the IC50 (PARG; [1]) of the same molecule?
**A.** > 1000 nM

**Q.** For `COc1ccc(C(=O)/C=C/C(=O)N2CCN(c3cc(S(=O)(=O)NC4(C#N)CC4)cn4c(-c5nnc(C(F)(F)F)s5)ncc34)CC2)cc1` [Example 211, (E)-N-(1-cyanocyclopropyl)-8-(4-(4-(4-methoxyphenyl)-4-oxobut-2-enoyl)piperazin-1-yl)-3-(5-(trifluoromethyl)-1,3,4-thiadiazol-2-yl)imidazo[1,5-a]pyridine-6-sulfonamide], which IC50 (HCC1806; Homo sapiens, HCC1806, 168 h) is on record?
**A.** 222 nM

**Q.** What about the IC50 (PARG; PARG, TFMU-ADPr substrate) of the same molecule?
**A.** 209 nM

**Q.** For `CC1(NS(=O)(=O)c2cc(N3CCC(O)(C(F)(F)F)CC3)c3cnc(-c4nnc(C(F)F)s4)n3c2)COC1` [Example 72, 3-(5-(difluoromethyl)-1,3,4-thiadiazol-2-yl)-8-(4-hydroxy-4-(trifluoromethyl)piperidin-1-yl)-N-(3-methyloxetan-3-yl)imidazo[1,5-a]pyridine-6-sulfonamide], which IC50 (HCC1806) is on record?
**A.** 805 nM

**Q.** And the IC50 (HCC1806; Homo sapiens, HCC1806, 168 h)?
**A.** 500 to 5000 nM

**Q.** What about the IC50 (PARG; [1]) of the same molecule?
**A.** < 100 nM

**Q.** And the IC50 (PARG; PARG, TFMU-ADPr substrate)?
**A.** 17.8 nM

**Q.** With `CC(C)OC(=O)N1CCN(c2cc(S(=O)(=O)NC3(C#N)CC3)cn3c(-c4nnc(C(F)(F)F)s4)ncc23)CC1` [Example 234, isopropyl 4-(6-(N-(1-cyanocyclopropyl)sulfamoyl)-3-(5-(trifluoromethyl)-1,3,4-thiadiazol-2-yl)imidazo[1,5-a]pyridin-8-yl)piperazine-1-carboxylate] as the molecule, how does the IC50 (HCC1806; Homo sapiens, HCC1806, 168 h) read?
**A.** 4000 nM

**Q.** What about the IC50 (PARG; PARG, TFMU-ADPr substrate) of the same molecule?
**A.** 13.2 nM

**Q.** How did the IC50 (HCC1806; Homo sapiens, HCC1806, 168 h) turn out when `COC1(C(=O)N2CCC(c3cc(S(=O)(=O)NC4(C#N)CC4)cn4c(-c5nnc(C(F)(F)F)s5)ncc34)CC2)CC1` [Example 373, N-(1-cyanocyclopropyl)-8-(1-(1-methoxycyclopropane-1-carbonyl)piperidin-4-yl)-3-(5-(trifluoromethyl)-1,3,4-thiadiazol-2-yl)imidazo[1,5-a]pyridine-6-sulfonamide] was run?
**A.** 21.1 nM

**Q.** What about the IC50 (PARG; PARG, TFMU-ADPr substrate) of the same molecule?
**A.** 3.31 nM
